{"source": "patent US7439250B2", "about": "“Compositions and methods related to fatty amino acid derivatives” (Board of Regents, The University of Texas System, priority 2002, dated 2008)", "key": {"[1]": {"test": "pH sensitivity of liposomes: turbidity (absorbance at 400 nm) as a function of pH titration", "assay_type": "physicochemical", "conditions": "samples (50 μl) in 3 ml PBS titrated with HCl; pH lowered from 4.5 to 3.5; DSPC samples extruded to 100 nm", "protocol": "FIG. 2 illustrates the absorbance change as a function of pH titration. Samples (50 μl) in 3 ml of PBS were titrated with HCl. The pH was measured and absorbence read at 400 nm.\nThe DSPC MLV samples were then processed by extrusion to form liposomes with diameters of 100 nm. The pH sensitivity of the liposomes were compared by monitoring turbidity at 400 nm as a function of pH. […] This feature of ALP may be useful in certain applications where pH plays a role."}, "[2]": {"test": "Liposome preparation by lipid film rehydration, observed by light microscopy", "assay_type": "physicochemical", "conditions": "PBS pH 7.2, 55° C.", "protocol": "Two ALPs of General Formula 1 were prepared, a) laurylaldehyde (X=O and R^1, R^2=C11H23) or b) (S,S)-(3-Octadecanoyl-6-oxo-2-undecyl-hexahydro-pyrimidine-4-carboxlic acid and tested for the ability to form liposomes and for its suitability as a component of liposomes containing phospholipids and cholesterol. Liposomes were prepared by mixing varying amounts of the phospholipid, distearoyl phosphatidylcholine (DSPC), cholesterol or ALP in chloroform. The chloroform was removed to form a thin lipid film. After vacuum desiccation overnight, each lipid formulation was rehydrated with phosphate buffered saline (PBS), pH 7.2, warmed to 55° C. (phase transition temperature of DSPC) and vortexed vigorously to form multilamellar liposomes (MLV). Aliquots of each MLV formulation were set aside and observed by light microscopy. DSPC MLV, DSPC MLV containing 10 mole % ALP, ALP lipid structures (3 mg/ml) and ALP lipid structures (30 mg/ml), respectively, were imaged."}}, "data": [{"smiles": "CCCCCCCCCCCCCCCCCC(=O)N1[C@@H](CCCCCCCCCCC)NC(=O)C[C@H]1C(=O)O", "note": "[ALP]", "values": [{"measurement": "absorbance change at 400 nm as a function of pH (pH sensitivity)", "setting": "[1]", "result": "increased"}, {"measurement": "structures formed on rehydration (light microscopy)", "setting": "[2]; ALP alone at high concentrations (30 mg/ml)", "result": "crystal structures were evident"}, {"measurement": "structures formed on rehydration (light microscopy)", "setting": "[2]; ALP alone at low concentrations (3 mg/ml)", "result": "typically form liposomes"}]}]}
